# Assays:
# Caspase-8 = target: T1, Caspase-8 (Homo sapiens, UniProt Q14790); assay: Caspase inhibitory effect, fluorescent substrate AcDEVD-AFC; assay type: biochemical; details: pH 7.5; 2.1 nM caspase-8, 50 μM AcDEVD-AFC, 25° C., pH 7.50; read-out: Caspase-8 Kobs/[I] (converted)
# T1 construct: p10 and p20 subunits (Thornberry, N. A. et al, Nature, 1992, 356, 768) were expressed in E. coli; made in house; host or cells: E. coli
# Experimental: Caspase-1 and caspase-8 known as cysteine proteases in the form of α2β2 were expressed, purified, and activated by modifying a method known in Thornberry, N. A. et al, Nature, 1992, 356, 768. Thornberry, N. A. Methods in Enzymology, 1994, 244, 615. Walker, N. P. C. et al. Cell, 1994, 78, 343, and caspase-9 was also purified by a similar method, and the inhibitory activity against them was tested. Briefly describing, p10 and p20 subunits (Thornberry, N. A. et al, Nature, 1992, 356, 768) were expressed in E. coli and purified by nickel column and anionic exchange chromatography to give caspase-1, caspase-8 and caspase-9. The fluorescent substrates AcYVAD-AFC for thus obtained caspase-1, AcDEVD-AFC for caspase-8, and AcLEHD-AFC for caspase-9, were used for determining specific activity of the synthesized inhibitors. The enzyme reaction was carried out at 25° C. with various concentrations of the inhibitors in a buffer solution containing 50 mM HEPES(pH 7.50), 10% (w/v) sucrose, 0.1% (w/v) CHAPS, 100 mM NaCl, 1 mM EDTA, and 10 mM DTT in the presence of 50 μM AcYVAD-AFC for 10 nM caspase-1, 50 μM AcDEVD-AFC for 2.1 nM caspase-8, and 150 μM AcLEHD-AFC for 200 nM caspase-9. The inhibitory constants Ki and Kobs of the inhibitors were determined by measuring the reaction velocity with the time lapse using a fluorescent spectrometer and by obtaining the initial rate constant. Ki was calculated from the Lineweaver Burk Plot, and Kobs from the following Equation 1. Kobs=−ln(1−At/Aoo)/t [Equation 1]
# At means cleavage rate (%) at time t, and
# Aoo means the maximum cleavage rate (%).
# Spectra MAX GeminiXS Fluorescent Spectrometer of Molecular Device Co. was used at the excitation wavelength of 405 nm and the emission wavelength of 505 nm.
# [1] = tested on: Jurkat cell (ATCC TIB-152); assay: Jurkat cell apoptosis induced by Fas antibody, WST-1 method; assay type: cell-based; details: Homo sapiens, amount of alive cells by WST-1
# Experimental: The […] inhibitory activity of the inhibitors was determined by subjecting Jurkat cell (ATCC TIB-152) to apoptosis using Fas antibody (Upstate Biotech 05-201) and by detecting the color change according to the WST-1 method known in Francoeur A. M. and Assalian A. (1996) Biochemica 3, 19-25 to observe the amount of alive Jurkat cells when the cells were treated by the inhibitor. Spectra MAX 340 Spectrometer of Molecular Device Co. was used at the absorbance wavelength of 440 nm.
# T1 sequence (Q14790 217-374 limits assumed, species assumed): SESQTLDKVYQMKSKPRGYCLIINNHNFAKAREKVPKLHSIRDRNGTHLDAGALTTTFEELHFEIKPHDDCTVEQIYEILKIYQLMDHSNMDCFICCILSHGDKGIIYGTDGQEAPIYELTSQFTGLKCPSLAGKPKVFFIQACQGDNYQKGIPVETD
# T1 sequence (Q14790 385-479 limits assumed, species assumed): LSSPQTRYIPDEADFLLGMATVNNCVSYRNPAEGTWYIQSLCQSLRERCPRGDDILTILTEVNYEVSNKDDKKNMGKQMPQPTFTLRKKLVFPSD
kinact/KI (Caspase-8) [M⁻¹ s⁻¹],IC50 [1] [nM],SMILES
14000,730,"CCC(C(=O)NC(CC(=O)O)C(=O)CF)c1ccnn(Cc2csc(C)n2)c1=O (stereo not shown) [Example 14, 5-Fluoro-3-2-[2-(2-methyl-thiazol-4-ylmethyl)-3-oxo-2,3-dihydro-pyridazin-4-yl]-butyrylamino-4-oxo-pentanoic acid]"
21700,460,"CCC(C(=O)NC(CC(=O)O)C(=O)CF)c1ccnn(Cc2ccccc2)c1=O (stereo not shown) [Example 3, 3-[2-(2-Benzyl-3-oxo-2,3-dihydro-pyridazin-4-yl)-butyrylamino]-5-fluoro-4-o xo-pentanoic acid]"
50000,880,"CCC(C(=O)NC(CC(=O)O)C(=O)CF)c1ccnn(Cc2cccc(C)c2)c1=O (stereo not shown) [Example 9, 5-Fluoro-3-2-[2-(3-methyl-benzyl)-3-oxo-2,3-dihydro-pyridazin-4-yl]-butyryl amino-4-oxo-pentanoic acid]"
73300,42,"CCC(C(=O)NC(CC(=O)O)C(=O)CF)c1ccnn(Cc2ccccc2Cl)c1=O (stereo not shown) [Example 18, 3-{2-[2-(2-Chloro-benzyl)-3-oxo-2,3-dihydro-pyridazin-4-yl]-butyrylamino}-5-fluoro-4-oxo-pentanoic acid]"
900,1940,"CC[C@H](C(=O)N[C@@H](CC(=O)O)C(=O)COc1c(F)c(F)cc(F)c1F)c1ccnn(Cc2cccc(C(C)(C)C)c2)c1=O [Example 25-2, (S)-3-{(S)-2-[2-(3-tert-Butyl-benzyl)-3-oxo-2,3-dihydro-pyridazin-4-yl]-butyrylamino}-4-oxo-5-(2,3,5,6-tetrafluoro-phenoxy)-pentanoic acid]"
18300,43,"CCC(C(=O)NC(CC(=O)O)C(=O)CF)c1ccnn(Cc2cccc(Br)c2)c1=O (stereo not shown) [Example 20, 3-{2-[2-(3-Bromo-benzyl)-3-oxo-2,3-dihydro-pyridazin-4-yl]-butyrylamino}-5-fluoro-4-oxo-pentanoic acid]"
3830,2070,"CCC(C(=O)NC(CC(=O)O)C(=O)CF)c1c(OC)cnn(Cc2ccccc2)c1=O (stereo not shown) [Example 5, 3-[2-(2-Benzyl-5-methoxy-3-oxo-2,3-dihydro-pyridazin-4-yl)-butyrylamino]-5-fluoro-4-oxo-pentanoic acid]"
1830,4150,"CC[C@H](C(=O)N[C@@H](CC(=O)O)C(=O)COc1c(F)c(F)cc(F)c1F)c1ccnn(Cc2ccccc2C(C)(C)C)c1=O [Example 24-2, (S)-3-{(S)-2-[2-(2-tert-Butyl-benzyl)-3-oxo-2,3-dihydro-pyridazin-4-yl]-butyrylamino}-4-oxo-5-(2,3,5,6-tetrafluoro-phenoxy)-pentanoic acid]"
